Assay [1] addresses T1, HiBit-BRG1 fusion protein (Homo sapiens, UniProt P51532).
T1 construct: expressed in transfected cells
Description: HiBiT-BRG1 cell-based degradation assay (Nano-Glo HiBiT Lytic Detection, 24 h). The note with it: HeLa cell line expressing HiBit-BRG1 and LgBit; for Dmax: read-out: BRG1 HiBit Degradation Maximum (%); for DC50: read-out: BRMG1 HiBit Degradation IC50. In a few lines:
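Stable HeLa line co-expressing HiBit-BRG1 and LgBit, 5000 cells/well, treated 24 h in a tissue culture incubator. Lysed with Nano-Glo HiBiT lytic reagent, luminescence read. % degradation normalized to DMSO (high control) and 2 μM reference BRM/BRG1 degrader (low control).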

The target in a further assay is T2, HiBit-BRM fusion protein (Homo sapiens, UniProt P51531).
T2 construct: expressed in transfected cells
T2 sequence (P51531 whole entry, the tested form may be a part): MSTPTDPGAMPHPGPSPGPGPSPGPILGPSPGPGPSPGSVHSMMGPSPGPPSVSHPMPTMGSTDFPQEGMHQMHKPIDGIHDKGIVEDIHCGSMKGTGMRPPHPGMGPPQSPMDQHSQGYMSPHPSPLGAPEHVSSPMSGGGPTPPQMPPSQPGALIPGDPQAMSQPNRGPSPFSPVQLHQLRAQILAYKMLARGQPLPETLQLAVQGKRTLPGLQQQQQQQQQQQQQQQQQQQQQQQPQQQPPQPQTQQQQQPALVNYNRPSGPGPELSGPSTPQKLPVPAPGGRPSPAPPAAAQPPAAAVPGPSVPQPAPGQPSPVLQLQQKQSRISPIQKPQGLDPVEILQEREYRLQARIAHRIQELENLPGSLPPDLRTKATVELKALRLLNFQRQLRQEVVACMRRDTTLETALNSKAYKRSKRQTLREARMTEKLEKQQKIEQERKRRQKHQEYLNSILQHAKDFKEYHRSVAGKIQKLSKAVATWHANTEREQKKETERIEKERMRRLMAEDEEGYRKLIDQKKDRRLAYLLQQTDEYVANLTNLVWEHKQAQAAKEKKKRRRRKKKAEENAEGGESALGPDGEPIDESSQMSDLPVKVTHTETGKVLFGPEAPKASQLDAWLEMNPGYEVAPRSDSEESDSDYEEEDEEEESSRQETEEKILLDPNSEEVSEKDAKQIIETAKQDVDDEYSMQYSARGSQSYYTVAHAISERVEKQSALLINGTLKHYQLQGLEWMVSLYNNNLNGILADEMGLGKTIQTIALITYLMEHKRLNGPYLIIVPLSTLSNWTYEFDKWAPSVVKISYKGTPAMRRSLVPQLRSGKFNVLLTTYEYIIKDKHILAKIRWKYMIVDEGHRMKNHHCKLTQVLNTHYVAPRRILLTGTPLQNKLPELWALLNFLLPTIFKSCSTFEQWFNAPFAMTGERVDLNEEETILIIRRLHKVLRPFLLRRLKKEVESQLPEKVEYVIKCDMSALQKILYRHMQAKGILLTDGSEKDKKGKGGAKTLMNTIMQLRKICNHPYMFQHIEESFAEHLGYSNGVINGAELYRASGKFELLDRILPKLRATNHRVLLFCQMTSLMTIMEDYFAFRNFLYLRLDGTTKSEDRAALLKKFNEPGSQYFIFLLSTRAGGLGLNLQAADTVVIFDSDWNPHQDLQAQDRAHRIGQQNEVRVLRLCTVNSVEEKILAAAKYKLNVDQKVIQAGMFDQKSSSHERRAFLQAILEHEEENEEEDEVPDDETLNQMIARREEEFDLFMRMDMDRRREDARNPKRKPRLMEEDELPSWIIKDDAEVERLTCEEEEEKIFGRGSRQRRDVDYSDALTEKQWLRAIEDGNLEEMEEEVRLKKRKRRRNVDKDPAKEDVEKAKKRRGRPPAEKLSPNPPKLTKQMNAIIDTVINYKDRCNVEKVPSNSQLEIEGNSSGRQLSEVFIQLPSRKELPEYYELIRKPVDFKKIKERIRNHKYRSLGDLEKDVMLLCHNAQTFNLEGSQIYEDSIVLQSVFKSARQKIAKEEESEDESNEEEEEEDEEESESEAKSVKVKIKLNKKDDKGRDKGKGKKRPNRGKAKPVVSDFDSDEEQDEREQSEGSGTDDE
In words: HiBiT-BRM cell-based degradation assay (Nano-Glo HiBiT Lytic Detection, 24 h). The note with it: HeLa cell line expressing HiBiT-BRM; for DC50: read-out: BRM HiBit Degradation IC50. In outline: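 Stable HiBiT-BRM HeLa line; 24 h compound exposure, top final 30 μM, 3-fold, 10 pts in duplicate. Lytic HiBiT/LgBiT luminescence readout. % degradation vs DMSO (0%) and 2 μM known BRM/BRG1 degrader (100%).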
(The HiBiT peptide binds its large partner to form an active luciferase.)

A value given as a limit tells only on which side of the number the result lay.

T1 sequence (P51532 whole entry, the tested form may be a part): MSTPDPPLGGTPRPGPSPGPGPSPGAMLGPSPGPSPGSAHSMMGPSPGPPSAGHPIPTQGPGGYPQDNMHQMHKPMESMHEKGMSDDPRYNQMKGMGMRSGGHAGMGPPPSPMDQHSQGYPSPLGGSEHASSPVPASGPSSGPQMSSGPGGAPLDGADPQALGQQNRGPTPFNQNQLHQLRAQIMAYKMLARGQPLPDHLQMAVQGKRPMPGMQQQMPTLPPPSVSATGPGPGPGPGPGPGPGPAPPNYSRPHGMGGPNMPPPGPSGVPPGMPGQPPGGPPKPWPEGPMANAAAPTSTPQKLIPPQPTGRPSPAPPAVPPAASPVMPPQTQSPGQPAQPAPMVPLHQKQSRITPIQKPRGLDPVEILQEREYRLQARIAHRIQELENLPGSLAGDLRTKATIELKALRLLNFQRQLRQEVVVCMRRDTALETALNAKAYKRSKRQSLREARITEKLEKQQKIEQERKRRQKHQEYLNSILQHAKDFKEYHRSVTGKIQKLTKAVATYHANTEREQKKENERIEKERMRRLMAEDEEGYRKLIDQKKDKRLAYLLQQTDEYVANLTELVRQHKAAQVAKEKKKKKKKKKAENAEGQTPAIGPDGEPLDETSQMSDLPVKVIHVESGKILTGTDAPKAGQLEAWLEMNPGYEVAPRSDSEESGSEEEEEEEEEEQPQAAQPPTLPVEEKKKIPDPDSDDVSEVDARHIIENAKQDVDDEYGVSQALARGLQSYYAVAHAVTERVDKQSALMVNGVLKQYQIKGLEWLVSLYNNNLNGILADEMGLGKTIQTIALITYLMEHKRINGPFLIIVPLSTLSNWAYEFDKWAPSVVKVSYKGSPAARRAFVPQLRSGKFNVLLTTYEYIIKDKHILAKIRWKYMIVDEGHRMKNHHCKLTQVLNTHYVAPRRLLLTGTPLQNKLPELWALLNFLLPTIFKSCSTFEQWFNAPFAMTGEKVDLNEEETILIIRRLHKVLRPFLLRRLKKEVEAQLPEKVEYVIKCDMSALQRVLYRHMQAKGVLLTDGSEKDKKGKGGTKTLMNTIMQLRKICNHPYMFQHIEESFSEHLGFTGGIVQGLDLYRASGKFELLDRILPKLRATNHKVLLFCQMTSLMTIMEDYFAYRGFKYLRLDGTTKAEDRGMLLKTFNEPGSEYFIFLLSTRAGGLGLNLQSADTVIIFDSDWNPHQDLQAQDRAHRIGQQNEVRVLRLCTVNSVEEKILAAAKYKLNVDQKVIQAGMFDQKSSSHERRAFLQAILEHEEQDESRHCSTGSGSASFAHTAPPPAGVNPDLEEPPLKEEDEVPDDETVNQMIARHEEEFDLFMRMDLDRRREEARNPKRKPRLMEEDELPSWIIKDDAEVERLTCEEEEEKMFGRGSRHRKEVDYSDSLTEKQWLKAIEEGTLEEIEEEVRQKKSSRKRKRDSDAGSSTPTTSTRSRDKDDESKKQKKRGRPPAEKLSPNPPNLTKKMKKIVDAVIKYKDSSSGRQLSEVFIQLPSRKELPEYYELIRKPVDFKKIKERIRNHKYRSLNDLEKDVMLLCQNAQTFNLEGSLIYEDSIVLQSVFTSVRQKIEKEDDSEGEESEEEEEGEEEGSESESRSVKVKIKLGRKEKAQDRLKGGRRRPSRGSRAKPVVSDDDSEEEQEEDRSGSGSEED

As to `Cc1ncsc1-c1ccc([C@H](C)NC(=O)[C@@H]2C[C@@H](O)CN2C(=O)[C@@H](c2cc(OCCN3CCC(O)(c4cc5cc(-c6ccccc6O)nnc5[nH]4)CC3)no2)C(C)C)cc1` (racemic) [Compound 277, (2S,4R)-4-hydroxy-1-((R)-2-(3-(2-(4-hydroxy-4-(3-(2-hydroxyphenyl)-7H-pyrrolo[2,3-c]pyridazin-6-yl)piperidin-1-yl)ethoxy)isoxazol-5-yl)-3-methylbutanoyl)-N-((S)-1-(4-(4-methylthiazol-5-yl)phenyl)ethyl)pyrrolidine-2-carboxamide], in assay [1], the Dmax was less than 50%. On HiBit-BRM fusion protein, the “BRM HiBit Degradation Maximum (%)” value is recorded as “A (“A” indicates maximum degradation ≥ 75%)” and the DC50 is more than 100 nM.

Take `Cc1ncsc1-c1ccc([C@H](C)NC(=O)[C@@H]2C[C@@H](O)CN2C(=O)[C@@H](c2cc(N3CCN(C(=O)c4cc5cc(-c6ccccc6O)nnc5[nH]4)CC3)no2)C(C)C)cc1` (racemic) [Compound 253, (2S,4R)-4-hydroxy-1-((R)-2-(3-(4-(3-(2-hydroxyphenyl)-7H-pyrrolo[2,3-c]pyridazine-6-carbonyl)piperazin-1-yl)isoxazol-5-yl)-3-methylbutanoyl)-N-((S)-1-(4-(4-methylthiazol-5-yl)phenyl)ethyl)pyrrolidine-2-carboxamide]: in assay [1], the Dmax was more than 75% and the DC50 is more than 100 nM. At HiBit-BRM fusion protein, the “BRM HiBit Degradation Maximum (%)” value was “A (“A” indicates maximum degradation ≥ 75%)” and the DC50 was more than 100 nM.

`Cc1ncsc1-c1ccc([C@H](C)NC(=O)[C@@H]2C[C@@H](O)CN2C(=O)[C@@H](c2cc(N3CCC(N4CC(c5cc6cc(-c7ccccc7O)nnc6[nH]5)C4)CC3)no2)C(C)C)cc1` (racemic) [Compound 248, (2S,4R)-4-hydroxy-1-((R)-2-(3-(4-(3-(3-(2-hydroxyphenyl)-7H-pyrrolo[2,3-c]pyridazin-6-yl)azetidin-1-yl)piperidin-1-yl)isoxazol-5-yl)-3-methylbutanoyl)-N-((S)-1-(4-(4-methylthiazol-5-yl)phenyl)ethyl)pyrrolidine-2-carboxamide]: in assay [1], the Dmax is more than 50% and the DC50 is more than 100 nM. For the same molecule, at HiBit-BRM fusion protein, the “BRM HiBit Degradation Maximum (%)” value is “A (“A” indicates maximum degradation ≥ 75%)” and the DC50 was more than 10 nM.

For `Cc1ncsc1-c1ccc([C@H](C)NC(=O)[C@@H]2C[C@@H](O)CN2C(=O)[C@@H](c2cc([C@H]3CC[C@@H](c4cnc(N5CCC(c6c[nH]c7nnc(-c8ccccc8O)cc67)CC5)nc4)CC3)no2)C(C)C)cc1` (racemic) [Compound 68, (2S,4R)-4-hydroxy-N-[(1S)-1-[4-(4-methyl-1,3-thiazol-5-yl)phenyl]ethyl]-1-[(2R)-3-methyl-2-{3-[(1s,4s)-4-(2-{4-[3-(2-hydroxyphenyl)-7H-pyrrolo[2,3-c]pyridazin-5-yl]piperidin-1-yl}pyrimidin-5-yl)cyclohexyl]-1,2-oxazol-5-yl}butanoyl]pyrrolidine-2-carboxamide], the Dmax in assay [1] is less than 50%. Also, at HiBit-BRM fusion protein, the “BRM HiBit Degradation Maximum (%)” value is reported as “A (“A” indicates maximum degradation ≥ 75%)” and the DC50 was more than 10 nM.

As for `Cc1ncsc1-c1ccc(CNC(=O)[C@@H]2C[C@@H](O)CN2C(=O)[C@@H](NC(=O)[C@H]2CC[C@@H](c3cnc(N4CCC(c5cc6cc(-c7ccccc7O)nnc6[nH]5)CC4)nc3)CC2)C(C)(C)C)cc1` (racemic) [Compound 94, (2S,4R)-4-hydroxy-1-((S)-2-((1s,4R)-4-(2-(4-(3-(2-hydroxyphenyl)-7H-pyrrolo[2,3-c]pyridazin-6-yl)piperidin-1-yl)pyrimidin-5-yl)cyclohexane-1-carboxamido)-3,3-dimethylbutanoyl)-N-(4-(4-methylthiazol-5-yl)benzyl)pyrrolidine-2-carboxamide], in assay [1], the Dmax is less than 50%. In addition, on HiBit-BRM fusion protein, the “BRM HiBit Degradation Maximum (%)” value is listed as “A (“A” indicates maximum degradation ≥ 75%)” and the DC50 was more than 10 nM.

In the case of `Cc1ncsc1-c1ccc([C@H](C)NC(=O)[C@@H]2C[C@@H](O)CN2C(=O)[C@@H](c2cc(C3CCN(C(=O)[C@@]4(N)CCc5[nH]c6nnc(-c7ccccc7O)cc6c5C4)CC3)no2)C(C)C)cc1` (relative stereo) [Compound 103, (2S,4R)-1-[(2R)-2-(3-{1-[(6R*)-6-amino-3-(2-hydroxyphenyl)-5H,7H,8H,9H-pyridazino[3,4-blindole-6-carbonyl]piperidin-4-yl}-1,2-oxazol-5-yl)-3-methylbutanoyl]-4-hydroxy-N-[(1S)-1-[4-(4-methyl-1,3-thiazol-5-yl)phenyl]ethyl]pyrrolidine-2-carboxamide], in assay [1], the Dmax is less than 50%. On HiBit-BRM fusion protein, the “BRM HiBit Degradation Maximum (%)” value is listed as “B (“B” indicates maximum degradation ≥ 50%)” and the DC50 was more than 100 nM.

For the molecule `Cc1ncsc1-c1ccc([C@H](C)NC(=O)[C@@H]2C[C@@H](O)CN2C(=O)[C@@H](c2cc(N3CCN(C(=O)CN4CC(c5cc6cc(-c7ccccc7O)nnc6[nH]5)C4)CC3)no2)C(C)C)cc1` (racemic) [Compound 269, (2S,4R)-4-hydroxy-1-((R)-2-(3-(4-(2-(3-(3-(2-hydroxyphenyl)-7H-pyrrolo[2,3-c]pyridazin-6-yl)azetidin-1-yl)acetyl)piperazin-1-yl)isoxazol-5-yl)-3-methylbutanoyl)-N-((S)-1-(4-(4-methylthiazol-5-yl)phenyl)ethyl)pyrrolidine-2-carboxamide], in assay [1], the Dmax was more than 75% and the DC50 was more than 100 nM. Moreover, on HiBit-BRM fusion protein, the “BRM HiBit Degradation Maximum (%)” value is “A (“A” indicates maximum degradation ≥ 75%)” and the DC50 was more than 10 nM.

For `Cc1ncsc1-c1ccc([C@H](C)NC(=O)[C@@H]2C[C@@H](O)CN2C(=O)[C@@H](c2cc(N3CCC(CN[C@H]4CCc5[nH]c6nnc(-c7ccccc7O)cc6c5C4)CC3)no2)C(C)C)cc1` [Compound 159, (2S,4R)-4-hydroxy-1-((R)-2-(3-(4-((((S)-3-(2-hydroxyphenyl)-6,7,8,9-tetrahydro-5H-pyridazino[3,4-b]indol-6-yl)amino)methyl)piperidin-1-yl)isoxazol-5-yl)-3-methylbutanoyl)-N-((S)-1-(4-(4-methylthiazol-5-yl)phenyl)ethyl)pyrrolidine-2-carboxamide], in assay [1], the Dmax is more than 75% and the DC50 was more than 100 nM. Also, at HiBit-BRM fusion protein, the “BRM HiBit Degradation Maximum (%)” value is listed as “A (“A” indicates maximum degradation ≥ 75%)” and the DC50 is more than 10 nM.

For `O=C1CCC(N2C(=O)c3cccc(OCCCCCCCC(=O)N4CC(c5cc6cc(-c7ccccc7O)nnc6[nH]5)C4)c3C2=O)C(=O)N1` (centres unmarked) [Compound 30, 2-(2,6-dioxopiperidin-3-yl)-4-((8-(3-(3-(2-hydroxyphenyl)-7H-pyrrolo[2,3-c]pyridazin-6-yl)azetidin-1-yl)-8-oxooctyl)oxy)isoindoline-1,3-dione], the Dmax in assay [1] was less than 50%. Further, the “BRM HiBit Degradation Maximum (%)” value on HiBit-BRM fusion protein is listed as “C (“C” indicates maximum degradation < 50%)”.

On to `Cc1ncsc1-c1ccc(CNC(=O)[C@@H]2C[C@@H](O)CN2C(=O)[C@@H](NC(=O)CCCCCCCCCCCCCC(=O)N2CC(c3c[nH]c4nnc(-c5ccccc5O)cc34)C2)C(C)(C)C)cc1` [Compound 39, (2S,4R)-4-hydroxy-1-((S)-2-(15-(3-(3-(2-hydroxyphenyl)-7H-pyrrolo[2,3-c]pyridazin-5-yl)azetidin-1-yl)-15-oxopentadecanamido)-3,3-dimethylbutanoyl)-N-(4-(4-methylthiazol-5-yl)benzyl)pyrrolidine-2-carboxamide], for which the Dmax in assay [1] is less than 50%. Besides, the “BRM HiBit Degradation Maximum (%)” value at HiBit-BRM fusion protein was “C (“C” indicates maximum degradation < 50%)”.

Turning to `Cc1ncsc1-c1ccc([C@H](C)NC(=O)[C@@H]2C[C@@H](O)CN2C(=O)[C@@H](c2cc(N3CCC(C(=O)N[C@@H]4CCc5[nH]c6nnc(-c7ccccc7O)cc6c5C4)CC3)no2)C(C)C)cc1` (single isomer, unassigned) [Compound 146], in assay [1], the Dmax is more than 75% and the DC50 was more than 100 nM. Also, on HiBit-BRM fusion protein, the “BRM HiBit Degradation Maximum (%)” value is listed as “A (“A” indicates maximum degradation ≥ 75%)” and the DC50 is more than 10 nM.

For `Cc1ncsc1-c1ccc([C@H](C)NC(=O)[C@@H]2C[C@@H](O)CN2C(=O)[C@@H](c2cc(OCCN3CC(c4cc5cc(-c6ccccc6O)nnc5[nH]4)C3)no2)C(C)C)cn1` (single isomer, unassigned) [Compound 219], in assay [1], the Dmax is less than 50%. For the same molecule, on HiBit-BRM fusion protein, the “BRM HiBit Degradation Maximum (%)” value is reported as “A (“A” indicates maximum degradation ≥ 75%)” and the DC50 is more than 100 nM.

With `Cc1ncsc1-c1ccc(CNC(=O)[C@@H]2C[C@@H](O)CN2C(=O)[C@@H](NC(=O)CCCCCCCC(=O)N2CC(c3c[nH]c4nnc(-c5ccccc5O)cc34)C2)C(C)(C)C)cc1` [Compound 36, (2S,4R)-4-hydroxy-1-((S)-2-(9-(3-(3-(2-hydroxyphenyl)-7H-pyrrolo[2,3-c]pyridazin-5-yl)azetidin-1-yl)-9-oxononanamido)-3,3-dimethylbutanoyl)-N-(4-(4-methylthiazol-5-yl)benzyl)pyrrolidine-2-carboxamide], the Dmax in assay [1] was less than 50%. Also, the “BRM HiBit Degradation Maximum (%)” value at HiBit-BRM fusion protein is reported as “C (“C” indicates maximum degradation < 50%)”.

As to `Cc1ncsc1-c1ccc(CNC(=O)[C@@H]2C[C@@H](O)CN2C(=O)[C@@H](NC(=O)CCCCCCCNCCC(=O)N2CC(c3c[nH]c4nnc(-c5ccccc5O)cc34)C2)C(C)(C)C)cc1` (racemic) [Compound 56, (2S,4R)-4-hydroxy-1-((S)-2-(8-((3-(3-(3-(2-hydroxyphenyl)-7H-pyrrolo[2,3-c]pyridazin-5-yl)azetidin-1-yl)-3-oxopropyl)amino)octanamido)-3,3-dimethylbutanoyl)-N-(4-(4-methylthiazol-5-yl)benzyl)pyrrolidine-2-carboxamide], the Dmax in assay [1] was less than 50%. In addition, on HiBit-BRM fusion protein, the “BRM HiBit Degradation Maximum (%)” value is recorded as “B (“B” indicates maximum degradation ≥ 50%)” and the DC50 was more than 1000 nM.

Values taken from patent US20240024488A1, “COMPOUNDS AND USES THEREOF” (Foghorn Therapeutics Inc., priority 2020, published 2024).
